Here are results for four compounds from patent US20120122820A1, “PRODRUGS AND THE USE THEREOF” (Bayer Schering Pharma Aktiengesellschaft, priority 2007, published 2012).

SMILES strings stand for the structures. In brackets after ≈: the same amount, converted by molar mass. Structures can show the parent of a compound that is named as a salt.

Usually solubility stands for the concentration that dissolves in the medium under given conditions.

Data set [1] concerns heart rate of anesthetized rats. The data set can be described thus: Influence on the heart rate of anesthetized rats. In kind it is in vivo. The settings on record: maximum decrease in the first 30 min after i.v. bolus of 100 μg/kg of (A) or equivalent dosages; anesthetized male Wistar rats. The protocol: Male Wistar rats with a body weight above 250 g are employed. In the night before the experiment, the animals receive no feed but still have free access to drinking water. Preparation and investigations are carried out under Trapanal® anesthesia (100 mg/kg i.p.). Injection and infusion take place through a catheter in the jugular vein, and the blood pressure is recorded via a catheter in the femoral artery (transducer: Braun, Melsungen). After the preparation, the animals are connected to a continuous infusion of physiological saline solution to compensate fluid losses. Test substance or placebo solution are administered intravenously as bolus after an equilibration time of about 1 h. Heart rate and arterial blood pressure are recorded during the equilibration and over a period of at least 30 min after the bolus injection with the aid of a digital evaluation program.
Table 5 lists the maximum heart rate decrease in the first 30 min after an i.v. bolus of 100 μg/kg of the active substance (A) or of equivalent dosages of representative exemplary embodiments: […]

Data set [2] is described as follows: Stability in buffer at various pH values. In kind it is physicochemical. The protocol:
0.3 mg of the test substance is weighed into a 2 ml HPLC vial and 0.5 ml of acetonitrile or acetonitrile/DMSO (9:1) is added. The substance is dissolved by putting the sample vessel in an ultrasonic bath for about 10 seconds. Then 0.5 ml of the respective (buffer) solution is added, and the sample is again treated in the ultrasonic bath.
• pH 4: 1 liter of Millipore water is adjusted to pH 4.0 with 1 N hydrochloric acid; • pH 5: 0.096 mol of citric acid and 0.2 mol of sodium hydroxide ad 1 liter of water; • pH 7.4: 90.0 g of sodium chloride, 13.61 g of potassium dihydrogen phosphate and 83.35 g of 1 N sodium hydroxide solution are made up to 1 liter with water; this solution is then further diluted 1:10 with Millipore water. • pH 8: 0.013 mol of borax and 0.021 mol of hydrochloric acid ad 1 liter of water.
5 μl portions of the sample solution are analyzed by HPLC for their content of unchanged test substance, and of parent substance (A) produced, every hour over a period of 24 hours at 37° C. The percentage areas of the appropriate peaks are used for quantification.
HPLC method for Examples 1-21:
Agilent 1100 with DAD (G1314A), binary pump (G1312A), autosampler (G1329A), column oven (G1316A), thermostat (G1330A); column: Kromasil 100 C18, 60 mm×2.1 mm, 3.5 μm; column temperature: 30° C.; eluent A: water+5 ml of perchloric acid/liter, eluent B: acetonitrile; gradient: 0-1.0 min 98% A, 2% B; 1.0-9.0 min 2% A, 98% B; 9.0-13.0 min 2% A, 98% B; 13.0-13.5 min 98% A, 2% B; 13.5-15.0 min 98% A, 2% B; flow rate: 0.75 ml/min; UV detection: 210 nm.
HPLC method for Examples 22-40:
The ratios of the peak areas (F) at the respective time points in relation to the peak areas at the starting time are shown in Table 3 for representative exemplary embodiments: […]

A short description of data set [3]: Oral pharmacokinetics in Wistar rats. In kind it is in vivo. The following applies: after oral administration (gavage), male Wistar rats. The procedure:
(§1) On the day before administration of the substance, a catheter for obtaining blood is implanted in the jugular vein of the experimental animals (male Wistar rats, body weight 200-250 g) under Isofluran® anesthesia.
(§2) On the day of the experiment, a defined dose of the test substance is administered as solution into the stomach by gavage. Blood samples (8-12 time points) are taken through the catheter sequentially over the course of 24 h after administration of the substance. Plasma is obtained by centrifuging the samples in heparinized tubes. Acetonitrile is added to a defined plasma volume per time point to precipitate proteins. After centrifugation, test substance and, where appropriate, known cleavage products of the test substance in the supernatant are determined quantitatively using a suitable LC/MS-MS method.
The measured plasma concentrations are used to calculate pharmacokinetic parameters of the test substance and of the active ingredient compound (A) liberated therefrom, such as AUC, Cmax, T1/2 (half-life).

Data set [4] in a line: i.v. pharmacokinetics in Wistar rats. In kind it is in vivo. The following applies: after i.v. bolus administration, male Wistar rats. The protocol: as §1
as §2, with “tail vein using a Hamilton® glass syringe (bolus administration, duration of administration <10 s).” for “stomach by gavage.”
The measured plasma concentrations are used to calculate pharmacokinetic parameters of the test substance and of the active ingredient compound (A) liberated therefrom, such as AUC, Cmax, T1/2 (half-life) and CL (clearance).

Data set [5] is described as follows: Determination of the solubility (24 h shaking at room temperature, ultracentrifugation, HPLC). In kind it is physicochemical. The settings on record: thermodynamic from solid. The procedure:
The test substance is suspended in water or dilute hydrochloric acid (pH 4) [Examples 1-21] or in 5% strength aqueous dextrose solution [Examples 22-40]. This suspension is shaken at room temperature for 24 h. After ultracentrifugation at 224 000 g for 30 min, the supernatant is diluted with DMSO and analyzed by HPLC. A two-point calibration plot of the test compound in DMSO is used for quantification.
Agilent 1100 with DAD (G1315A), quat. pump (G1311A), autosampler CTC HTS PAL, degasser (G1322A) and column thermostat (G1316A); column: Phenomenex Gemini C18, 5 μm, 50 mm×2 mm; temperature: 40° C.; eluent A: water/phosphoric acid pH 2, eluent B: acetonitrile; flow rate: 0.7 ml/min; gradient: 0-0.5 min 85% A, 15% B; ramp 0.5-3 min 10% A, 90% B; 3-3.5 min 10% A, 90% B; ramp 3.5-4 min 85% A, 15% B; 4-5 min 85% A, 15% B.
Agilent 1100 with DAD (G1315A), quat. pump (G1311A), autosampler CTC HTS PAL, degasser (G1322A) and column thermostat (G1316A); column: VDSoptilab Kromasil 100 C18, 3.5 μm, 60 mm×2.1 mm; temperature: 30° C.; eluent A: water+5 ml of perchloric acid/liter, eluent B: acetonitrile; flow rate: 0.75 ml/min; gradient: 0-0.5 min 98% A, 2% B; ramp 0.5-4.5 min 10% A, 90% B; 4.5-6 min 10% A, 90% B; ramp 6.5-6.7 min 98% A, 2% B; 6.7-7.5 min 98% A, 2% B.

Where [6] appears, read: aqueous buffer, dilute hydrochloric acid (pH 4).

Take `N#Cc1c(N)nc(SCc2csc(-c3ccc(Cl)cc3)n2)c(C#N)c1-c1ccc(OCCOC(=O)CN)cc1` [Example 5, 2-{4-[2-Amino-6-({[2-(4-chlorophenyl)-1,3-thiazol-4-yl]methyl}thio)-3,5-dicyanopyridin-4-yl]-phenoxy}ethyl glycinate]: in data set [1], the Heart rate decrease stood at 21%. The “% test substance after 4 h [F(t = 4 h) × 100/F(t = 0 h)]” value (from here on “% test substance after 4 h”) was 100% in data set [2] (pH 4, 37° C.) and 94% in data set [2] (pH 8, 37° C.). The “% test substance after 24 h [F(t = 24 h) × 100/F(t = 0 h)]” value (shortened to “% test substance after 24 h”) in data set [2] (pH 4, 37° C.) turned out to be 100%; in data set [2] (pH 8, 37° C.), 68%. Besides, the “Detectability of the test substance (prodrug) in plasma” value (shortened to “Detectability of the test substance”) in data set [3] and in data set [4] was “no longer detectable in plasma even at the first measurement point” in each case.

Regarding `CN(C)CC(=O)OCCOc1ccc(-c2c(C#N)c(N)nc(SCc3csc(-c4ccc(Cl)cc4)n3)c2C#N)cc1` [Example 15, 2-{4-[2-Amino-6-({[2-(4-chlorophenyl)-1,3-thiazol-4-yl]methyl}thio)-3,5-dicyanopyridin-4-yl]-phenoxy}ethyl (N,N-dimethyl)glycinate], the Heart rate decrease in data set [1] was 21%. The “% test substance after 4 h” value came to 93% in data set [2] (pH 4, 37° C.) and 90% in data set [2] (pH 8, 37° C.). The “% test substance after 24 h” value in data set [2] (pH 4, 37° C.) is 91%; in data set [2] (pH 8, 37° C.), 76%. For the same compound, the solubility at 24 h in data set [5] (setting [6]) came to 240 µg/mL (≈ 397 µM). For the same compound, the “Detectability of the test substance” value in data set [3] and in data set [4] was “no longer detectable in plasma even at the first measurement point” throughout.

Turning to `N#Cc1c(N)nc(SCc2csc(-c3ccc(Cl)cc3)n2)c(C#N)c1-c1ccc(OCCOC(=O)CCC(=O)O)cc1` [Example 19, 4-(2-{4-[2-Amino-6-({[2-(4-chlorophenyl)-1,3-thiazol-4-yl]methyl}thio)-3,5-dicyanopyridin-4-yl]-phenoxy}ethoxy)-4-oxobutanoic acid hydrochloride], the Heart rate decrease in data set [1] stood at 18%. In data set [5] (setting [6]), this compound registered a solubility at 24 h of 57 µg/mL. For the same compound, the “Detectability of the test substance” value in data set [3] is “no longer detectable in plasma even at the first measurement point”.

Regarding `N#Cc1c(N)nc(SCc2csc(-c3ccc(Cl)cc3)n2)c(C#N)c1-c1ccc(OCCOC(=O)[C@@H](N)CCCN)cc1` [Example 22, 2-{4-[2-Amino-6-({[2-(4-chlorophenyl)-1,3-thiazol-4-yl]methyl}thio)-3,5-dicyanopyridin-4-yl]-phenoxy}ethyl L-ornithinate dihydrochloride], the Heart rate decrease in data set [1] is 13%. The “% test substance after 4 h” value is 100% in data set [2] (pH 4, 37° C.) and 0% in data set [2] (pH 7.4, 37° C.). The “% test substance after 24 h” value in data set [2] (pH 4, 37° C.) is listed as 100%; in data set [2] (pH 7.4, 37° C.), 0%. Also, in data set [5] (saline or isotonic, 5% strength aqueous dextrose solution), the solubility at 24 h is greater than 500 µg/mL. In addition, the “Detectability of the test substance” value in data set [3] and in data set [4] was “no longer detectable in plasma even at the first measurement point” each time.
